Results reported in ChEMBL document CHEMBL1134497, “Soluble 2-substituted aminopyrido[2,3-d]pyrimidin-7-yl ureas. Structure-activity relationships against selected tyrosine kinases and exploration of in vitro and in vivo anticancer activity” (J Med Chem, 2001).

Columns and labels:
[1] = target: Platelet-derived growth factor receptor beta (Mus musculus, UniProt P05622); test: Ability to prevent phosphorylation of isolated mouse PDGF receptor beta
[2] = target: Proto-oncogene tyrosine-protein kinase Src (Gallus gallus, UniProt P00523); test: Ability to prevent phosphorylation of avian c-Src TK
[3] = target: Fibroblast growth factor receptor 1 (Homo sapiens, UniProt P11362)
Description: Ability to prevent phosphorylation of human fibroblast growth factor receptor 1

C6 = test: Inhibition of C-6 rat glioma cell proliferation; type: functional, cell-based
[4] = target: Cyclin-dependent kinase 4 (Homo sapiens, UniProt P11802); test: Inhibition of cyclin dependent kinase 4 (CDK4)
HCT-8 = test: Inhibition of human colon carcinoma HCT-8 cell proliferation; type: functional, cell-based
[5] = Inhibition of MEK1/ERK (MAP kinase kinase) in cascade assay
HT-29 = test: Inhibition of human colon carcinoma HT-29 cell proliferation; type: functional, cell-based
NIH3T3 = test: Inhibition of NIH3T3/PDGF Mouse transfected fibroblasts cell line; type: functional, cell-based
Protein kinase C (PKC) = test: Inhibition of protein kinase C; type: protein assay
[6] = target: Platelet-derived growth factor receptor (PDGFr) (Rattus norvegicus, UniProt P20786+Q05030); test: Inhibition of PDGF receptor autophosphorylation in rat aortic vascular smooth muscle cells
SW-620 = test: Inhibition of human colon carcinoma SW-620 cell proliferation; type: functional, cell-based
[7] = Inhibition of MEK1/ERK (MAP Kinase kinase) in cascade assay

Chain of Cyclin-dependent kinase 4 (P11802 whole entry): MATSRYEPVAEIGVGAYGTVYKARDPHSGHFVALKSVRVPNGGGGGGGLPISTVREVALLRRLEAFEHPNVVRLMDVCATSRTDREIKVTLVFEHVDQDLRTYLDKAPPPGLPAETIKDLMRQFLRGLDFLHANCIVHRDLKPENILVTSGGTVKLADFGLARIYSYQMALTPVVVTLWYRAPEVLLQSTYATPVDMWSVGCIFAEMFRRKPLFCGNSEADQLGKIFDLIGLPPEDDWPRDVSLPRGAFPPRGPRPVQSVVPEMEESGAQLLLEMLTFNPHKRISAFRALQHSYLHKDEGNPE
Chain of Fibroblast growth factor receptor 1 (P11362 whole entry): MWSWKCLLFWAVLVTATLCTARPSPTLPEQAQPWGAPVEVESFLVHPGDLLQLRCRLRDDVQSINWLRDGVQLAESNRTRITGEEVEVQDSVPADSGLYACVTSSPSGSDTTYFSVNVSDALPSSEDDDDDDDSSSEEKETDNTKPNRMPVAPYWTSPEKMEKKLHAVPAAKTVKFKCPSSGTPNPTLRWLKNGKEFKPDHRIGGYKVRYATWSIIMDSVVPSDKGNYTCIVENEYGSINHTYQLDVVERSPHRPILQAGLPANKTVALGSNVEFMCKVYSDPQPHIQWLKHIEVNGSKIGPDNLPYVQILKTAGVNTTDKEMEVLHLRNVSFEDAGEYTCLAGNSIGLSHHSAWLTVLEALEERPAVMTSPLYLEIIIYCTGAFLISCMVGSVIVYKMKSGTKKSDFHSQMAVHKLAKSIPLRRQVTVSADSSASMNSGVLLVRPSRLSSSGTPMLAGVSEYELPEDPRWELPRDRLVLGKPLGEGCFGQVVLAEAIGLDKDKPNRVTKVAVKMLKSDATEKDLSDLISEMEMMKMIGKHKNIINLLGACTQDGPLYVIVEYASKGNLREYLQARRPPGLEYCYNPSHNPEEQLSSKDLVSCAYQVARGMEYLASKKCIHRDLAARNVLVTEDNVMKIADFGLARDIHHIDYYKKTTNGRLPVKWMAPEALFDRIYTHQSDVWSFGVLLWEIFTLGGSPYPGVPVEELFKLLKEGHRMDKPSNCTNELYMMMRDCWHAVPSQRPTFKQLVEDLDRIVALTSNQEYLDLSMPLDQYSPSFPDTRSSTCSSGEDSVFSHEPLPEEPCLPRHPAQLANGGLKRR
Chain of Platelet-derived growth factor receptor beta (P05622 whole entry): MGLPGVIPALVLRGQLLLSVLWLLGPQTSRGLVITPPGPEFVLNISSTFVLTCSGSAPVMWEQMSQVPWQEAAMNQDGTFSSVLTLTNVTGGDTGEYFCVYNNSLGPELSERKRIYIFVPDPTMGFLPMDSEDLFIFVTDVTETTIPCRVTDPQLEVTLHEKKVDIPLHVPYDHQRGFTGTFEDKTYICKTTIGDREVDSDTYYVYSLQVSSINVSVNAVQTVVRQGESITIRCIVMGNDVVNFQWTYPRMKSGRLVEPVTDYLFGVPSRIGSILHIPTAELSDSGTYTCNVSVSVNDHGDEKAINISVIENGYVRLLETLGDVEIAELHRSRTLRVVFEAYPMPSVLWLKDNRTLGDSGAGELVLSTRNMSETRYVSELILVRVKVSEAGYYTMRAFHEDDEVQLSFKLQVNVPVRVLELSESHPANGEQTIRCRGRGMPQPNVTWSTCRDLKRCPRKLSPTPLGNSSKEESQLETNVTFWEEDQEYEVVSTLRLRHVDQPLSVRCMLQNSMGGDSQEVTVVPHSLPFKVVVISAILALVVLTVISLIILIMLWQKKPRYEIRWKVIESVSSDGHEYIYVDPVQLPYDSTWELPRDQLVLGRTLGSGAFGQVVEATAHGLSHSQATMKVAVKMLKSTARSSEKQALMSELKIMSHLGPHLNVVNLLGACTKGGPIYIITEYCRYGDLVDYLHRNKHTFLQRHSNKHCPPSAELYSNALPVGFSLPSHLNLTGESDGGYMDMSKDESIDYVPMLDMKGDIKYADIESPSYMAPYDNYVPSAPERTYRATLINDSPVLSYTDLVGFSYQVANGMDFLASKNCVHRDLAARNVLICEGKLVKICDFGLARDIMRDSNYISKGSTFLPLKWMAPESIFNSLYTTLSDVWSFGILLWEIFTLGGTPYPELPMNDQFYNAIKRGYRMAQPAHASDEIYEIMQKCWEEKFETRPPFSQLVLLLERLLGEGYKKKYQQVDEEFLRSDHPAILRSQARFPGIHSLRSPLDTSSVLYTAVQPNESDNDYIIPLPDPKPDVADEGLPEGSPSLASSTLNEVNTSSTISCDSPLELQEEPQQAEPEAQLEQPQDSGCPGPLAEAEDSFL

Compound	IC50 [1] [nM]	IC50 [2] [nM]	IC50 [3] [nM]	other results
CN1CCN(CCCNc2ncc3cc(-c4c(Cl)cccc4Cl)c(NC(N)=O)nc3n2)CC1	2400	61	140	–
CCN(CC)CCCNc1ncc2cc(-c3c(C)cccc3C)c(NC(=O)NC(C)(C)C)nc2n1	–	98	340	–
C=CCNC(=O)Nc1nc2nc(NCCCN3CCN(C)CC3)ncc2cc1-c1c(Cl)cccc1Cl	760	22	35	–
CCN(CC)C(=O)Nc1nc2nc(NCCCN3CCN(C)CC3)ncc2cc1-c1c(Cl)cccc1Cl	> 50000	> 50000	5500	–
CCN(CC)CCCCNc1ncc2cc(-c3c(Cl)cccc3Cl)c(NC(=O)NC3CCCCC3)nc2n1	330	12	43	–
Cc1ccc(NC(=O)Nc2nc3nc(NCCCN4CCN(C)CC4)ncc3cc2-c2c(Cl)cccc2Cl)cc1	840	36	110	–
Cc1cc(C)c(C)c(-c2cc3cnc(N)nc3nc2N)c1C	> 50000	> 50000	> 50000	–
CN(C)CCCNc1ncc2cc(-c3c(Cl)cccc3Cl)c(NC(=O)NC(C)(C)C)nc2n1	–	120	–	–
CN1CCN(CCCNc2ncc3cc(-c4c(Cl)cccc4Cl)c(NC(=O)Nc4ccc(C(F)(F)F)cc4)nc3n2)CC1	5500	190	–	–
CN1CCN(CCCNc2ncc3cc(-c4c(Cl)cccc4Cl)c(N)nc3n2)CC1	9600	180	450	–
COc1ccc(NC(=O)Nc2nc3nc(NCCCN4CCN(C)CC4)ncc3cc2-c2c(Cl)cccc2Cl)cc1	–	33	–	–
CCN(CC)CCCNc1ncc2cc(-c3c(Cl)cccc3Cl)c(NC(=O)NC(C)(C)C)nc2n1	–	73	–	–
CC(C)NC(=Nc1nc2nc(NCCCN3CCN(C)CC3)ncc2cc1-c1c(Cl)cccc1Cl)NC(C)C	–	850	2500	–
CN1CCN(CCCNc2ncc3cc(-c4c(Cl)cccc4Cl)c(NC(=O)Nc4ccc(Cl)c(Cl)c4)nc3n2)CC1	5000	92	600	–
COc1cc(OC)cc(-c2cc3cnc(N)nc3nc2NC(=O)NC(C)(C)C)c1	–	–	48	–
CC(C)(C)NC(=O)Nc1nc2nc(N)ncc2cc1-c1c(Br)cccc1Br	1400	210	–	–
CN1CCN(CCCNc2ncc3cc(-c4c(Cl)cccc4Cl)c(N=C(N)Nc4ccccc4)nc3n2)CC1	37000	860	2800	–
CCN(CC)CCCNc1ncc2cc(-c3c(Cl)cccc3Cl)c(N)nc2n1	–	750	–	–
CCCC(=O)Nc1nc2nc(NCCCN3CCN(C)CC3)ncc2cc1-c1c(Cl)cccc1Cl	> 50000	2700	3700	–
CCNC(=O)Nc1nc2nc(NCCCN(CC)CC)ncc2cc1-c1c(Cl)cccc1Cl	1300	94	130	–
CCNC(=O)Nc1nc2nc(NCCCCN(CC)CC)ncc2cc1-c1c(Cl)cccc1Cl	–	–	–	IC50 (C6): 8800 nM; IC50 [4]: > 40000 nM; IC50 (HCT-8): 4020 nM; IC50 [5]: > 5000 nM; IC50 (HT-29): 1170 nM; IC50 (NIH3T3): 1010 nM; IC50 (Protein kinase C (PKC)): > 50000 nM; IC50 [6]: 240 nM; IC50 (SW-620): 2760 nM

Compound	IC50 [1] [nM]	IC50 [2] [nM]	IC50 [3] [nM]	other results
COc1ccccc1NC(=O)Nc1nc2nc(NCCCN3CCN(C)CC3)ncc2cc1-c1c(Cl)cccc1Cl	660	16	67	–
CN1CCN(CCCNc2ncc3cc(-c4c(Cl)cccc4Cl)c(NS(=O)(=O)c4ccccc4)nc3n2)CC1	6900	22	68	–
CCCCCCCCNC(=O)Nc1nc2nc(NCCCN3CCN(C)CC3)ncc2cc1-c1c(Cl)cccc1Cl	–	120	420	–
CN1CCN(CCCNc2ncc3cc(-c4c(Cl)cccc4Cl)c(NC(=S)Nc4ccccc4)nc3n2)CC1	2200	22	320	–
CCN(CC)CCCNc1ncc2cc(-c3c(Cl)cccc3Cl)c(NC(=O)CC(C)(C)C)nc2n1	> 50000	19000	27000	–
CN(C)CCNC(=O)Nc1nc2nc(NCCCN3CCN(C)CC3)ncc2cc1-c1c(Cl)cccc1Cl	2400	20	75	–
CC1CCCCN1CCCNc1ncc2cc(-c3c(Cl)cccc3Cl)c(NC(=O)NC(C)(C)C)nc2n1 (stereo not given)	730	16	–	–
CN1CCN(CCCCNc2ncc3cc(-c4c(Cl)cccc4Cl)c(NC(=O)NC(C)(C)C)nc3n2)CC1	280	10	–	–
CC(C)(C)NC(=O)Nc1nc2nc(NCCCN3CCOCC3)ncc2cc1-c1c(Cl)cccc1Cl	–	100	–	–
CN1CCN(CCCNc2ncc3cc(-c4c(Cl)cccc4Cl)c(NC(=O)Nc4cccc5ccccc45)nc3n2)CC1	–	130	300	–
CN1CCN(CCCNc2ncc3cc(-c4c(Cl)cccc4Cl)c(NC(=O)Nc4ccc(Br)cc4)nc3n2)CC1	1500	33	110	–
CCN(CC)CCCCNc1ncc2cc(-c3c(Cl)cccc3Cl)c(NC(=O)NC(C)(C)C)nc2n1	–	7.4	–	IC50 (C6): 5800 nM; IC50 [4]: > 40000 nM; IC50 (HCT-8): 16300 nM; IC50 [7]: 2800 nM; IC50 (HT-29): 900 nM; IC50 (Protein kinase C (PKC)): 23000 nM; IC50 (SW-620): > 25000 nM
CCN(CC)CCCCNc1ncc2cc(-c3c(Cl)cccc3Cl)c(NC(=S)NCCCN3CCOCC3)nc2n1	1100	22	130	–
Cc1cc(C)c(C)c(-c2cc3cnc(N)nc3nc2NC(=O)NC(C)(C)C)c1C	> 50000	> 50000	–	–
CN(C)CCCN(C)c1ncc2cc(-c3c(Cl)cccc3Cl)c(NC(=O)NC(C)(C)C)nc2n1	16000	1100	2000	–
COc1cc(OC)cc(-c2cc3cnc(N)nc3nc2N)c1	–	> 50000	–	–
CCN(CC)CCCNc1ncc2cc(-c3c(Br)cccc3Br)c(N)nc2n1	> 50000	760	8300	–
CCN(CC)CCCNc1ncc2cc(-c3c(Cl)cccc3Cl)c(NC(=O)NC(C)C)nc2n1	–	78	–	–
CCN(CC)CCCNc1ncc2cc(-c3c(Cl)cccc3Cl)c(/N=C\N(C)C)nc2n1	> 50000	4000	10000	–
CC(C)NC(=O)Nc1nc2nc(NCCCN3CCN(C)CC3)ncc2cc1-c1c(Cl)cccc1Cl	550	19	34	–
CCN(CC)CCCNc1ncc2cc(-c3c(C)cccc3C)c(N)nc2n1	25000	450	18000	–

Compound	IC50 [1] [nM]	IC50 [2] [nM]	IC50 [3] [nM]	other results
CN1CCN(CCCNc2ncc3cc(-c4c(Cl)cccc4Cl)c(NC(=O)NC(C)(C)C)nc3n2)CC1	–	–	–	IC50 (C6): 4000 nM; IC50 [4]: > 40000 nM; IC50 (HCT-8): > 15200 nM; IC50 [7]: 7000 nM; IC50 (HT-29): 11100 nM; IC50 (NIH3T3): 1080 nM; IC50 (Protein kinase C (PKC)): 22000 nM; IC50 (SW-620): > 25000 nM
CC(C)(C)NC(=O)Nc1nc2nc(N)ncc2cc1-c1c(Cl)cccc1Cl	1200	220	–	–
CN1CCN(CCCNc2ncc3cc(-c4c(Cl)cccc4Cl)c(NC(=O)NCCNC(=O)OC(C)(C)C)nc3n2)CC1	4200	150	67	–
CCN(CC)CCNc1ncc2cc(-c3c(Cl)cccc3Cl)c(NC(=O)NC(C)(C)C)nc2n1	9000	4100	1800	–
Nc1ncc2cc(-c3c(Br)cccc3Br)c(N)nc2n1	–	1600	–	–
CN1CCN(CCCNc2ncc3cc(-c4c(Cl)cccc4Cl)c(NC(=O)NC45C[C@H]6C[C@@H](C4)C[C@@H](C5)C6)nc3n2)CC1	2800	120	120	–
CCNC(=O)Nc1nc2nc(NCCN(CC)CC)ncc2cc1-c1c(Cl)cccc1Cl	12000	2600	1300	–
CCN(CC)CCCNc1ncc2cc(-c3c(Br)cccc3Br)c(NC(=O)NC(C)(C)C)nc2n1	1100	97	190	–
CN1CCN(CCCNc2ncc3cc(-c4c(Cl)cccc4Cl)c(/N=C(/S)NC(C)(C)C)nc3n2)CC1	–	220	100	–
Nc1ncc2cc(-c3c(Cl)cccc3Cl)c(N)nc2n1	16000	210	–	–
Cc1cccc(C)c1-c1cc2cnc(N)nc2nc1N	29000	430	13000	–
CN1CCN(CCCNc2ncc3cc(-c4c(Cl)cccc4Cl)c(NC(=O)Nc4ccc(Cl)cc4)nc3n2)CC1	1800	40	120	–
CN(C)CC(C)(C)CNc1ncc2cc(-c3c(Cl)cccc3Cl)c(NC(=O)NC(C)(C)C)nc2n1	3200	3500	210	–
CN1CCN(CCCNc2ncc3cc(-c4c(Cl)cccc4Cl)c(NC(=O)Cc4ccccc4)nc3n2)CC1	> 50000	3300	6800	–
CC/N=C(\N)Nc1nc2nc(NCCCN(CC)CC)ncc2cc1-c1c(Cl)cccc1Cl	> 50000	1400	2700	–
CN1CCN(CCCNc2ncc3cc(-c4c(Cl)cccc4Cl)c(NC(=O)CC(C)(C)C)nc3n2)CC1	> 50000	8400	8000	–
CCNC(=S)Nc1nc2nc(NCCCN(CC)CC)ncc2cc1-c1c(Cl)cccc1Cl	5000	130	260	–
COc1cccc(NC(=O)Nc2nc3nc(NCCCN4CCN(C)CC4)ncc3cc2-c2c(Cl)cccc2Cl)c1	910	29	–	–
CCNC(=O)Nc1nc2nc(NCCCN3CCN(C)CC3)ncc2cc1-c1c(Cl)cccc1Cl	–	24	–	IC50 (C6): 6700 nM; IC50 (HCT-8): 9300 nM; IC50 (HT-29): 900 nM; IC50 (SW-620): 2500 nM
